Measurements as given in ChEMBL document CHEMBL4184127, “Isolation of a peptide containing d-amino acid residues that inhibits the α-helix-mediated p53-MDM2 interaction from a one-bead one-compound library” (Bioorg Med Chem Lett, 2018).

Experiments:
[1] = Metabolic stability in human serum assessed as compound remaining at 3 mM after 24 hrs by HPLC analysis; assay type: ADME, cell-free; details: read-out: Stability
[2] = Metabolic stability in human serum assessed as compound remaining at 3 mM after 72 hrs by HPLC analysis; assay type: ADME, cell-free; details: read-out: Stability

Molecule CC(C)C[C@H](NC(=O)[C@H](CC(=O)O)NC(=O)[C@H](CCC(=O)O)NC(=O)[C@@H](NC(=O)[C@H](CC(C)C)NC(=O)[C@H](CCC(=O)O)NC(=O)C(C)(C)NC(=O)[C@H](Cc1c[nH]c2ccccc12)NC(=O)[C@@H](NC(=O)[C@@H](N)CC(=O)O)[C@@H](C)O)C(C)C)C(=O)N[C@@H](CC(N)=O)C(=O)NCC(=O)NCC(=O)NCC(=O)N[C@@H](CO)C(=O)N[C@@H](Cc1ccc(Br)cc1)C(=O)N[C@@H](CCCNC(=N)N)C(N)=O has a remaining at 24 h, 3000 µM [1] of 24%.

For CC(C)C[C@@H](NC(=O)[C@@H](CC(=O)O)NC(=O)[C@@H](CCC(=O)O)NC(=O)[C@H](NC(=O)[C@@H](CC(C)C)NC(=O)[C@@H](CCC(=O)O)NC(=O)C(C)(C)NC(=O)[C@@H](Cc1c[nH]c2ccccc12)NC(=O)[C@H](NC(=O)[C@H](N)CC(=O)O)[C@@H](C)O)C(C)C)C(=O)N[C@H](CC(N)=O)C(=O)NCC(=O)NCC(=O)NCC(=O)N[C@@H](CO)C(=O)N[C@@H](Cc1ccc(Br)cc1)C(=O)N[C@@H](CCCNC(=N)N)C(N)=O, the remaining at 24 h, 3000 µM [1] was 62% and the remaining at 72 h, 3000 µM [2] was 36%.
